Assay results published in US4228274A, “1-Substituted glycopyranosides” (Merck & Co., Inc., priority 1978, dated 1980).
Values joined by “and” are separate entries in the source; they are usually repeats but may differ in a detail not shown here. Equal entries are not always repeated.

Tests used:
[1] = system: fat cells (isolated adipose cells); assay: In Vitro Fat Cell Bioassay (insulin-like activity, conversion of glucose-1-14C to 14CO2); type: cell-based; conditions: for 14-CO2: average CPM, baseline not subtracted, repeat lines are separate runs
Method: It is known that fat cells incubated in Krebs-Ringer bicarbonate buffer containing glucose and albumin convert glucose-1-^14 C to ^14 CO2. […] This is the basis of the bioassay of insulin-like activity described in J. Gliemann, Diabetes, 14, 643(1965). The method for preparing the necessary isolated adipose cells retaining their metabolic activity is described in M. Rodbell, J. Biol. Chem., 239, 375(1964).
The compounds of the present invention have been bioassayed for their insulin-like activity essentially by the process set forth in Gliemann and Rodbell.
*All compounds were tested at 100 μg./ml.
**Insulin standard at 25 μu/ml.
1. An average CPM value is taken of each group.
2. The average value of Baseline (Buffer control) is subtracted from the
average of each of the remaining groups.
3. In order to obtain Relative Activity percentage, the average CPM value
for each compound (minus the average CPM value of the control group) is
divided by the average CPM value in the insulin standard (minus the
average CPM value of the controls), and the resultant value multiplied by
100 to obtain % activity.

[2] = system: fat cells (isolated adipose cells); conditions: fat cells in Krebs-Ringer bicarbonate buffer containing glucose and albumin; known from Gliemann; cited from earlier work
[3] = compounds tested at 100 μg./ml, baseline subtracted, relative to insulin standard 25 μu/ml = 100%

Compound	14-CO2 ([1]; compounds tested at 100 μg./ml)	activity at 100 µg/mL [1, 3] [%]	Relative Activity % [1, 3] [%]	Relative Activity % ([1]; Insulin standard at 25 μu/ml, reference set to 100%) [%]	stimulation of 14CO2 production [2]
NCCCCCCO[C@H]1O[C@H](CO)[C@@H](O)[C@H](O)[C@@H]1O [1-(6-aminohexyl) α-D-mannopyranoside, 1-(6-aminohexyl)-α-D-mannopyranoside]	3330 cpm	28	–	–	–
NCCCCCCS[C@@H]1O[C@H](CO)[C@@H](O)[C@H](O)[C@@H]1O [1-[(6-aminohexyl)thio]-1-deoxy-β-D-mannopyranoside]	4898 cpm and 5177 cpm	93	78	–	–
NCCCCCCC(=O)N[C@@H]1O[C@H](CO)[C@@H](O)[C@H](O)[C@@H]1O [1-[(7-aminoheptanoyl)amino]-1-deoxy-β-D-mannopyranoside]	1952 cpm	26	–	–	–
Insulin: Insulin standard at 25 μu/ml	–	–	–	100	stimulation of severalfold
